Laboratory results taken from patent US11753397B2, “Cereblon binders for the degradation of ikaros” (C4 Therapeutics, Inc., priority 2018, dated 2023).

System: NCIH929.1 cells
Test: Cell viability assay (CellTiter-Glo 2.0, ATP quantification)
Type: cell-based
Conditions: NCIH929.1 cell viability, CellTiter-Glo 2.0, 96 hr incubation, top concentration 1 μM
Procedure, shortened: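 Cells seeded at 750/well in RPMI with 10% FBS and 0.05 mM 2-mercaptoethanol, exposed 96 h at 37 °C to 10-point half-log dilutions in duplicate, top 1 μM. Viability by CellTiter-Glo 2.0 ATP luminescence, with a day-0 read as cytostatic baseline (CT0).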

Row | Structure (SMILES) | GI50 [µM]
1 | CCOC(=O)N1CCC(n2cc(CNc3cccc4c3C(=O)N(C3CCC(=O)NC3=O)C4=O)cn2)CC1 (stereo not drawn) [Compound 147, ethyl 4-(4-(((2-(2,6-dioxopiperidin-3-yl)-1,3-dioxoisoindolin-4-yl)amino)methyl)-1H-pyrazol-1-yl)piperidine-1-carboxylate] | < 0.1
2 | O=C1CCC(N2C(=O)c3cccc(NCc4cnn(C5CCN(C(=O)Cn6cccn6)CC5)c4)c3C2=O)C(=O)N1 (stereo not drawn) [Compound 18, 4-(((1-(1-(2-(1H-pyrazol-1-yl)acetyl)piperidin-4-yl)-1H-pyrazol-4-yl)methyl)amino)-2-(2,6-dioxopiperidin-3-yl)isoindoline-1,3-dione] | < 0.1
3 | O=C1CCC(N2C(=O)c3cccc(NCc4cnn(C5CCN(C(=O)C6CCCOC6)CC5)c4)c3C2=O)C(=O)N1 (stereo not drawn) [Compound 42, 2-(2,6-dioxopiperidin-3-yl)-4-(((1-(1-(tetrahydro-2H-pyran-3-carbonyl)piperidin-4-yl)-1H-pyrazol-4-yl)methyl)amino)isoindoline-1,3-dione] | < 0.1
4 | O=C1CCC(N2C(=O)c3cccc(NCc4cnn(C5CCN(C(=O)C6(C(F)(F)F)CCC6)CC5)c4)c3C2=O)C(=O)N1 (stereo not drawn) [Compound 75, 2-(2,6-dioxopiperidin-3-yl)-4-(((1-(1-(1-(trifluoromethyl)cyclobutane-1-carbonyl)piperidin-4-yl)-1H-pyrazol-4-yl)methyl)amino)isoindoline-1,3-dione] | < 0.001
5 | O=C1CCC(N2C(=O)c3cccc(NCc4cnn(C5CCN(C(=O)C6(c7ccc(F)cc7)CCCCC6)CC5)c4)c3C2=O)C(=O)N1 (stereo not drawn) [Compound 68, 2-(2,6-dioxopiperidin-3-yl)-4-(((1-(1-(1-(4-fluorophenyl)cyclohexane-1-carbonyl)piperidin-4-yl)-1H-pyrazol-4-yl)methyl)amino)isoindoline-1,3-dione] | < 0.1
6 | O=C1CCC(N2C(=O)c3cccc(NCc4cnn(C5CCN(C(=O)Cc6ccc(F)cc6)CC5)c4)c3C2=O)C(=O)N1 (stereo not drawn) [Compound 25, 2-(2,6-dioxopiperidin-3-yl)-4-(((1-(1-(2-(4-fluorophenyl)acetyl)piperidin-4-yl)-1H-pyrazol-4-yl)methyl)amino)isoindoline-1,3-dione] | < 0.1
7 | CC(C)(C)OC(=O)N1CCC(n2cc(CNc3cccc4c3C(=O)N(C3CCC(=O)NC3=O)C4=O)cn2)CC1(C)C (stereo not drawn) [Compound 169, tert-Butyl 4-(4-(((2-(2,6-dioxopiperidin-3-yl)-1,3-dioxoisoindolin-4-yl)amino)methyl)-1H-pyrazol-1-yl)-2,2-dimethylpiperidine-1-carboxylate] | < 0.001
8 | CC1(C(=O)N2CCC(n3ncc(CNc4cccc5c4C(=O)N(C4CCC(=O)NC4=O)C5=O)c3C#N)CC2)CCC1 (stereo not drawn) [Compound 194, 4-(((2-(2,6-Dioxopiperidin-3-yl)-1,3-dioxoisoindolin-4-yl)amino)methyl)-1-(1-(1-methylcyclobutane-1-carbonyl)piperidin-4-yl)-1H-pyrazole-5-carbonitrile] | < 0.1
9 | O=C1CCC(N2C(=O)c3cccc(NCc4cnn(C5CCN(CC6(C(F)(F)F)CCC6)CC5)c4)c3C2=O)C(=O)N1 (stereo not drawn) [Compound 140, 2-(2,6-dioxopiperidin-3-yl)-4-(((1-(1-((1-(trifluoromethyl)cyclobutyl)methyl)piperidin-4-yl)-1H-pyrazol-4-yl)methyl)amino)isoindoline-1,3-dione] | < 0.1
10 | Cc1oc(-c2cccc(F)c2)nc1CC(=O)N1CCC(n2cc(CNc3cccc4c3C(=O)N(C3CCC(=O)NC3=O)C4=O)cn2)CC1 (stereo not drawn) [Compound 105, 2-(2,6-dioxopiperidin-3-yl)-4-(((1-(1-(2-(2-(3-fluorophenyl)-5-methyloxazol-4-yl)acetyl)piperidin-4-yl)-1H-pyrazol-4-yl)methyl)amino)isoindoline-1,3-dione] | < 0.1
11 | CC1(C(=O)N2CCC(c3ccccc3)(n3cc(CNc4cccc5c4C(=O)N(C4CCC(=O)NC4=O)C5=O)cn3)CC2)CCC1 (stereo not drawn) [Compound 172, 2-(2,6-Dioxopiperidin-3-yl)-4-(((1-(1-(1-methylcyclobutane-1-carbonyl)-4-phenylpiperidin-4-yl)-1H-pyrazol-4-yl)methyl)amino)isoindoline-1,3-dione] | < 0.1
12 | O=C1CCC(N2C(=O)c3cccc(NCc4cnn(C5CCN(C(=O)C67CC(F)(C6)C7)CC5)c4)c3C2=O)C(=O)N1 (stereo not drawn) [Compound 78, 2-(2,6-dioxopiperidin-3-yl)-4-(((1-(1-(3-fluorobicyclo[1.1.1]pentane-1-carbonyl)piperidin-4-yl)-1H-pyrazol-4-yl)methyl)amino)isoindoline-1,3-dione] | < 0.1
13 | CC(C)(C)COC(=O)N1CCC(n2cc(CNc3cccc4c3C(=O)N(C3CCC(=O)NC3=O)C4=O)cn2)CC1 (stereo not drawn) [Compound 149, neopentyl 4-(4-(((2-(2,6-dioxopiperidin-3-yl)-1,3-dioxoisoindolin-4-yl)amino)methyl)-1H-pyrazol-1-yl)piperidine-1-carboxylate] | < 0.001
14 | CC(C)(C)C(=O)N1CCC(n2cc(CNc3cccc4c3C(=O)N(C3CCC(=O)NC3=O)C4=O)cn2)CC1 (stereo not drawn) [Compound 90, 2-(2,6-dioxopiperidin-3-yl)-4-(((1-(1-pivaloylpiperidin-4-yl)-1H-pyrazol-4-yl)methyl)amino)isoindoline-1,3-dione] | < 0.001
15 | CC(C)(N)C(=O)N1CCC(n2cc(CNc3cccc4c3C(=O)N(C3CCC(=O)NC3=O)C4=O)cn2)CC1 (stereo not drawn) [Compound 50, 4-(((1-(1-(2-amino-2-methylopropanoyl)piperidin-4-yl)-1H-pyrazol-4-yl)methyl)amino)-2-(2,6-dioxopiperidin-3-yl)isoindoline-1,3-dione] | < 0.1
16 | CN1CCC(C)(C(=O)N2CCC(n3cc(CNc4cccc5c4C(=O)N(C4CCC(=O)NC4=O)C5=O)cn3)CC2)CC1 (stereo not drawn) [Compound 55, 4-(((1-(1-(1,4-dimethylpiperidine-4-carbonyl)piperidin-4-yl)-1H-pyrazol-4-yl)methyl)amino)-2-(2,6-dioxopiperidin-3-yl)isoindoline-1,3-dione] | < 0.1
17 | O=C1CCC(N2C(=O)c3cccc(NCc4cnn(C5CCN(C(=O)CC6CCCC6)CC5)c4)c3C2=O)C(=O)N1 (stereo not drawn) [Compound 20, 4-(((1-(1-(2-cyclopentylacetyl)piperidin-4-yl)-1H-pyrazol-4-yl)methyl)amino)-2-(2,6-dioxopiperidin-3-yl)isoindoline-1,3-dione] | < 0.1
18 | O=C1CCC(N2C(=O)c3cccc(NCc4cnn(C5CCN(C(=O)C6CCN(C(=O)C7CCOCC7)CC6)CC5)c4)c3C2=O)C(=O)N1 (stereo not drawn) [Compound 109, 2-(2,6-dioxopiperidin-3-yl)-4-(((1-(1-(1-(tetrahydro-2H-pyran-4-carbonyl)piperidine-4-carbonyl)piperidin-4-yl)-1H-pyrazol-4-yl)methyl)amino)isoindoline-1,3-dione] | < 0.1
19 | O=C1CCC(N2C(=O)c3cccc(NCc4cnn(C5CCN(C(=O)C6(C7CC7)CCC6)CC5)c4)c3C2=O)C(=O)N1 (stereo not drawn) [Compound 94, 4-(((1-(1-(1-cyclopropylcyclobutane-1-carbonyl)piperidin-4-yl)-1H-pyrazol-4-yl)methyl)amino)-2-(2,6-dioxopiperidin-3-yl)isoindoline-1,3-dione] | < 0.001
20 | CCCC(=O)N1CCC(n2cc(CNc3cccc4c3C(=O)N(C3CCC(=O)NC3=O)C4=O)cn2)CC1 (stereo not drawn) [Compound 35, 4-(((1-(1-butyrylpiperidin-4-yl)-1H-pyrazol-4-yl)methyl)amino)-2-(2,6-dioxopiperidin-3-yl)isoindoline-1,3-dione] | < 0.1
21 | O=C1CCC(N2C(=O)c3cccc(NCc4cnn(C5CCC(CC6CCCCC6)CC5)c4)c3C2=O)C(=O)N1 (stereo not drawn) [Compound 177, 4-(((1-(4-(Cyclohexylmethyl)cyclohexyl)-1H-pyrazol-4-yl)methyl)amino)-2-(2,6-dioxopiperidin-3-yl)isoindoline-1,3-dione] | < 0.1
22 | CC1(C)C[C@H](n2cc(CNc3cccc4c3C(=O)N(C3CCC(=O)NC3=O)C4=O)cn2)CCN1C(=O)C12C3C4C5C3C1C5C42 (stereo partly drawn) [Compound 196, 4-[[1-[(4R)-1-(Cubane-1-carbonyl)-2,2-dimethyl-4-piperidyl]pyrazol-4-yl]methylamino]-2-(2,6-dioxo-3-piperidyl)isoindoline-1,3-dione] | < 0.001
23 | O=C1CCC(N2C(=O)c3cccc(NCc4cnn(C5CCN(C6CCC6)CC5)c4)c3C2=O)C(=O)N1 (stereo not drawn) [Compound 129, 4-(((1-(1-cyclobutylpiperidin-4-yl)-1H-pyrazol-4-yl)methyl)amino)-2-(2,6-dioxopiperidine-3-yl)isoindoline-1,3-dione] | < 0.1
24 | CCOCC(=O)N1CCC(n2cc(CNc3cccc4c3C(=O)N(C3CCC(=O)NC3=O)C4=O)cn2)CC1 (stereo not drawn) [Compound 17, 2-(2,6-dioxopiperidin-3-yl)-4-(((1-(1-(2-ethoxyacetyl)piperidin-4-yl)-1H-pyrazol-4-yl)methyl)amino)isoindoline-1,3-dione] | < 0.1
